Assay results as given in US20140100419A1, “ACTIVE VITAMIN D OR ANALOGS THEREOF FOR USE IN IN VIVO OR IN VITRO FERTILIZATION” (priority 2011, published 2014).

Legend:
human spermatozoa [1] = assay: Sperm motility of washed spermatozoa with or without percoll gradient centrifugation; format: cell-based; conditions: for change in proportion of motile sperm: 24 hours at room temperature, with and without percoll, not substantially different from vehicle; for motile sperm / sperm motility (mean): 60 minutes
human spermatozoa [2] = assay: Sperm motility (ABC) in semen samples exposed to 1,25(OH)2D3; format: cell-based
Protocol: The participants produced a semen sample by masturbation. Self-reported information of duration of ejaculation abstinence was obtained. Trained technicians conducted semen analysis and a detailed description of assessment of semen samples has previously been published. Semen volume was estimated by weighing. For sperm motility assessment, duplicates of 10 μl of well-mixed semen were placed on a glass slide, examined on a heating stage kept at 37° C., under a microscope at ×400 magnification, and spermatozoa were classified as progressive motile (WHO class A+B), non-progressive motile (class C) or immotile (class D). The average of the two motility assessments was used. For the assessment of the sperm concentration the samples were diluted in a solution of 0.6 mol/l NaHCO3 and 0.4% (v/v) formaldehyde in distilled water, and subsequently assessed using Bürker-Türk haemocytometer. Only spermatozoa with tails were counted. Finally, smears were prepared, Papanicolaou stained and spermatozoa morphology assessed according to strict criteria (Menkveld et al., 1990).
Semen samples for the in vitro studies were obtained from 40 men from the general population, who were investigated between October 2009 and December 2010. Their semen samples were assessed as described above. […] Motility assessment was conducted in 17 samples (in duplicates) under non-capacitating conditions (in their seminal plasma), and 3 samples were also analyzed in capacitating conditions. 7 consecutively included men were used to investigate a dose-response relationship between VD and sperm motility.

[3] = test system: zona pellucida (ZP) of human oocytes; assay: Human sperm-zona pellucida interaction (sperm-egg binding) test; format: cell-based
Description: We used the Human sperm-zona pellucida interaction test that is designed to determine the capacity of sperm to interact with the zona pellucida (ZP) of human oocytes and serves thus as a test for evaluating fertility potential of human spermatozoa. The tests provide important diagnostic information about sperm fertilising ability and we used a modified version of the test developed by Liu and Baker (Liu and Baker hum reprod 1999 Defective sperm-zona pellucida interaction: a major cause of failure of fertilization in clinical in-vitro fertilization).
If the oocyte had sperm bound to the ZP from the IVF insemination, these were removed by aspiration using a fine glass pipette with an inner diameter (120 μm) slightly smaller than the oocyte diameter. […] Oocytes with >10 sperm penetrating the ZP were not used. Also degenerate, activated or morphologically abnormal oocytes were not used for the sperm-ZP interaction test. Oocytes were pooled from several patients and used for the test on the same day or kept in the incubator and used within the next 20 days. Between 15-30 oocytes was placed in 1 ml salt solution (storage 2-4 weeks). Salt-stored human oocytes were washed with gamete buffer (COOK) with four changes in 3 hours before they were used for the sperm-egg binding test.
Semen samples from five donors were used. […] The washed sperm pellet was resuspended with sEBSS to a sperm concentration of 2×10^6/ml for the ZP-interaction test. For the assessment of the sperm concentration the samples were diluted following the manufactures instruction and subsequently determined using SP-100 (Chemometec).
For the sperm-ZP interaction tests, either high quality sperm or total sperm sample (2×10^6) in 0.5 ml of medium (+/−1 nM Calcitriol) were incubated with three oocytes for 2 h at 37° C. in 5% CO2 in air. After incubation, the oocytes were transferred to sEBSS and washed by repeated aspiration with a glass pipette (inside diameter approximately 250 μm) to dislodge sperm loosely adhering to the surface of the ZP. Sperm binding to all oocytes was assessed.

human spermatozoa [4] = assay: Acrosome reaction (PSA-FITC staining); format: cell-based
Protocol: (§1) Calcium measurements and the acrosome reaction were performed on motile spermatozoa isolated after percoll density gradient centrifugation (Supra sperm gradients, (ORIGO)) following the manufacturer's instructions. Briefly, spermatozoa were separated from seminal plasma by centrifugation on a discontinuous percoll gradient using a two-step gradient comprising 2 ml layers of 55% and 80% percoll respectively. Semen was placed on the top of the gradient and centrifuged at 300×g for 25 min. The spermatozoa at the base of the 80% fraction were collected and washed with a 5 ml volume of capacitating medium (CaCl2 1.5 mM, KCl 4.3 mM, NaHCO3 31 mM, HEPES 15 mM, Human Serum Albumin 5 mg/ml, Glucose 4.5 mM, Sodium Pyruvate 0.8 mM, Synthetic Serum Replacement, 0.5 ug/ml human recombinant insulin (Sperm preparation media (ORIGO)) and finally resuspended in capacitating media and used for the following assays of calcium measurements and acrosome reaction. All men were part of the above mentioned ongoing surveillance program of semen quality among young Danish men and included after approval from the local ethical committee (No. H-4-2010-016).
Acrosome status was assessed according to a modified version of the method described by Cross et al. 1986. Motile spermatozoa were isolated by percoll gradient centrifugation, washed twice with 5 ml 0.9% sodium chloride followed by centrifugation at 300×g for 10 min. […] The smear and cytospin were fixed in 96% ethanol for 5 min after air drying, washed in distilled water and stained for minimum 2 hours with Pisum sativum agglutinin labelled with fluorescein isothiocyanate (Sigma Aldrich) in Dulbecco phosphate buffered saline at 4° C. Finally, the slides were washed in distilled water and mounted with Vectrashield (H-1080 Vectar Laboratories) and 200 spermatozoa were counted on each slide using a fluorescence microscope at a magnification of 400×. The mean percentage of acrosome-reacted spermatozoa of the two slides was calculated. When more than half the head of a spermatozoon was brightly and uniformly fluorescent, the acrosome was considered to be intact. Spermatozoa without fluorescence or with a fluorescing band limited to the equatorial segment were considered to be acrosome-reacted. Spermatozoa with a fluorescing band limited to the equatorial segment were named eq-AR. The person assessing the slides was blinded to the treatment of the sample.

human spermatozoa [5] = assay: Intracellular calcium [Ca2+]i in fura-2 loaded human spermatozoa; format: cell-based
Protocol: as §1
Semen samples were separated by percoll density gradient centrifugation to ensure viable and motile spermatozoa and resuspended in capacitating media for 1.5 hours. Afterwards, loaded with 3 μM of the fluorescent probe (intracellular calcium binding) fura-2/AM (Invitrogen, USA) for 30 min, centrifuged (10 min at 300 g) and washed with Krebs-Ringer buffer (120 mM NaCl, 15 mM NaHCO3, 5 mM KCl, 1 mM CaCl2, 5 mM Na2HPO4, 1 mM MgCl2 pH 7.3). […] Subsequently, 80 μl of the sperm sample was diluted in 920 μl Krebs-Ringer buffer and loaded on polylysine-coated chambers to minimize movement of the spermatozoa (Lab-Tek; Nalge Nunc International, USA). A Zeiss Axiovert 135 microscope equipped with a Zeiss Achrostigmat 40×1.3 NA objective was used to acquire images from the fluorescent probe. Excitation was obtained by a Polychrome Villuminator from Till Photonics (Germany) and images were acquired using a Cool Snap CCD camera (Photometrics, USA) from Robert Scientific (Malaysia). For measurements of [Ca2+]i, the excitation wavelengths were 338 and 380 nm, measuring emission above 510 nm using a cut-off filter. […] After background subtraction, ratio images were formed using MetaFluor software.
All experiments started by using low magnification to ensure visibility of several spermatozoa simultaneously. […] All measurements of [Ca^2+], were based upon evaluation of at least three spermatozoa simultaneously (see exact number in figure legends), and were repeated in at least three separate experiments. We used 10 different semen donors to ensure that all experiments were reproduced on semen samples from at least two different men.

VDR-ap = biological target: T1, VDR-ap (Homo sapiens, UniProt P11473); conditions: cited from earlier work
T1 sequence (P11473 1-427): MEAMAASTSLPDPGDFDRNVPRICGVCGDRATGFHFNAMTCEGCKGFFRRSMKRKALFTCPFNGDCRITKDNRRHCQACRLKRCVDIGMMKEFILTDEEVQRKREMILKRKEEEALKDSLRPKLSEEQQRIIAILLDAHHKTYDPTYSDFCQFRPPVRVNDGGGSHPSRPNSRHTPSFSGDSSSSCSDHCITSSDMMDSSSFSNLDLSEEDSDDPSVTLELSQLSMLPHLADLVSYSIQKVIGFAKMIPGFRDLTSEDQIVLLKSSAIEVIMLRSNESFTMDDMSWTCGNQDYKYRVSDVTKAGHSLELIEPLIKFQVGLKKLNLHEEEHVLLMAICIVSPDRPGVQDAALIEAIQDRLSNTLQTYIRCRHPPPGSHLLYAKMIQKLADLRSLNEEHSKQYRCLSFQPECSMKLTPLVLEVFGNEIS

[6] = 1 nM 1,25(OH)2D3 after pretreatment with nifedipine 10 μM

Compound: C=C1/C(=C\C=C2/CCC[C@]3(C)[C@@H]([C@H](C)CCCC(C)(C)O)CC[C@@H]23)C[C@@H](O)C[C@@H]1O [1,25(OH)2D3, 1,25-dihydroxycholecalciferol]
- change in proportion of motile sperm (human spermatozoa [1]; 1 nM calcitriol): modest decrease
- motile sperm (human spermatozoa [1]; 1 nM, isolated by percoll gradient centrifugation (from 62%)): 65%
- sperm motility (mean) (human spermatozoa [1]; 1 nM, no percoll centrifugation (vehicle mean 50)): 48
- time spermatozoa remain motile after treatment (human spermatozoa [1]; Example 5 + FIG. 9): at least 24 hours
- median decrease in sperm motility compared with control (human spermatozoa [2]; 10^-5M): 15%
- median increase in sperm motility (human spermatozoa [2]; 10^-9M, p=0.006): 7%
- increase in median sperm motility (ABC) (human spermatozoa [2]; 10^-14M to 10^-9M, non-capacitating conditions): 2-7%
- increase in mean sperm motility (human spermatozoa [2]; 17 men, 10^-9M for 30 min at room temperature, p=0.010): 2.9%
- sperm motility compared with control (human spermatozoa [2]; concentrations above 10^-7M): decreased motility compared with control
- mean number of spermatozoa bound to each oocyte ([3]; 1 nM, 5 donors, all pretreatments (vehicle mean 52)): 74
- mean difference in sperm bound versus vehicle ([3]; 1 nM, 5 donors, all pretreatments, p=0.022): 43%
- average improvement of sperm-egg binding versus vehicle ([3]; 1 nM, isolated with percoll gradient centrifugation, p=0.027): 28%
- difference in sperm-egg binding versus vehicle ([3]; 1 nM, not separated by percoll gradient centrifugation, p=0.139): 60%
- increase in sperm-egg binding ([3]; patient 3 (low semen quality), following percoll gradient centrifugation): 33%
- change in sperm-egg binding ([3]; patient 3 (low semen quality), not separated by Percoll centrifugation): modest decline
- median acrosome reacted spermatozoa, VD group (human spermatozoa [4]; 10^-9 M, capacitating conditions (control group 12%)): 21%
- median percentage of spermatozoa with an equatorial band (eq. AR) (human spermatozoa [4]; 10^-9 M, capacitating conditions (from 4.7%), p=0.214): 5.3%
- average increase in number of acrosome reacted spermatozoa (human spermatozoa [4]; 10^-9 M, capacitating conditions, p=0.024): 6%
- acrosome reacted spermatozoa, VD treated (human spermatozoa [4]; non-capacitating conditions (NaCl), 6 men (control 3.7%), not significant): 4.2%
- threshold for the all-or-nothing calcium response (human spermatozoa [5]): 10 to 50 µM
- time until calcium levels restore back to baseline (human spermatozoa [5]): ≤ 2 min
- max amplitude relative to max amplitude elicited by 10 μM progesterone (human spermatozoa [5]; 1 nM 1,25(OH)2D3): 40-80%
- maximum amplitude of calcium increase versus baseline calcium level (human spermatozoa [5]; 1 nM 1,25(OH)2D3): 5-10 fold
- amplitude of calcium response versus capacitating media (human spermatozoa [5]; 1 nM 1,25(OH)2D3, non-capacitating media, data not shown): lower amplitude
- length of repolarisation phase (human spermatozoa [5]; [6]): 4 min
- maximum amplitude of calcium increase versus baseline (human spermatozoa [5]; [6]): 7 fold
- increase in intracellular calcium ([Ca2+]i) from baseline calcium level (human spermatozoa [5]; 1,25(OH)2D3 100 μM-10 μM (so in the source), motile spermatozoa): 5-10 fold
- calcium response (human spermatozoa [5]; 1,25(OH)2D3 added 9 min after initiation of thapsigargin 4 μM): unable to elicit a substantial calcium response
- calcium response (human spermatozoa [5]; 1,25(OH)2D3 in spermatozoa exposed to 2 μM U73122): unable to induce a rapid increase
- time to max amplitude of the normal rapid calcium response (human spermatozoa [5]; 1,25(OH)2D3 without inhibitor): within one minute
- duration of plateau phase of [Ca2+]i (human spermatozoa [5]; <10 nM 1,25(OH)2D3): up to 50 sec
- change in Ca2+ concentration (human spermatozoa [5]; Example 4, 1 nM (FIG. 4)): instant increase
- start of calcium increase in the neck region (human spermatozoa [5]; after addition of 1,25(OH)2D3): ≤ 5 s
- increase in [Ca2+]i (human spermatozoa [5]; calcium free media with 5 μM EGTA): could not induce an increase
- calcium response (human spermatozoa [5]; calcium free media without EGTA): marked response
- increase in [Ca2+]i after addition of 1 mM calcium (human spermatozoa [5]; calcium free media, calcium added after treatment): comparable to the increase observed in the normal calcium containing Krebs Ringer solution
- duration of plateau phase of [Ca2+]i (human spermatozoa [5]; higher 1,25(OH)2D3 concentrations): 50 to 300 s
- duration of intracellular calcium increase before return to baseline (human spermatozoa [5]; physiological concentrations): up to 90 seconds
- effect of pre-treatment on the calcium effect of progesterone (human spermatozoa [5]; pre-treatment with 1,25(OH)2D3, then 10 μM progesterone): could not be abrogated

Compound: C[C@H](CCCC(C)(C)O)[C@H]1CC[C@H]2C3=CC=C4C[C@@H](O)C[C@H](O)[C@@]4(C)[C@@H]3CC[C@]12C [JN, 1α,25(OH)2-lumisterol]
- motile sperm (human spermatozoa [1]; 10 nM JN, isolated by percoll gradient centrifugation (from 69%)): 72%
- sperm motility (mean) (human spermatozoa [1]; 10 nM JN, no percoll centrifugation (vehicle mean 34)): 46
- change in proportion of motile sperm (human spermatozoa [1]; 10 nM JN): modest decrease
- mean number of spermatozoa bound to each oocyte ([3]; 10 nM JN, 1 donor (vehicle mean 37)): 65
- difference in sperm-egg binding versus vehicle ([3]; 10 nM JN, separated by percoll gradient centrifugation): 300%
- average improvement of sperm-egg binding versus vehicle ([3]; 10 nM JN, without percoll gradient centrifugation): 11%
- affinity for VDR-ap (VDR-ap): same affinity as 1,25(OH)2D3
